The values below come from patent US10188653B2, “Diacylglycerol acyltransferase 2 inhibitors” (Pfizer Inc., priority 2014, dated 2019).

The target of the assay is hDGAT2 (Homo sapiens (Human), UniProt Q96PD7). The experiment in a line: In vitro DGAT2 assay, determination of IC50 values for DGAT2 inhibitors. As to conditions: hDGAT2 membrane fraction; [1-14C]decanoyl-CoA and 1,2-didecanoyl-sn-glycerol substrates; geometric mean IC50; read-out: IC50 values of Examples for inhibition of DGAT2. Type of assay: biochemical. How it is done: Recombinant baculovirus for the FLAG-tagged hDGAT2 was generated in SF9 insect cells using Bac-to-Bac baculovirus expression system (Invitrogen) according to the manufacturer's protocol. For the expression of hDGAT2, SF9 cells (20 L) grown in Sf900II media were infected with hDGAT2 baculovirus at a multiplicity of infection of 1 in a Wave Bioreactor System 20/50P wave bag (GE Healthcare). After 40 hours of infection, the cells were then harvested by centrifugation at 5,000×g. The cell pellets were washed by resuspending in phosphate buffered saline (PBS) and collected by centrifugation at 5,000×g. The cell paste was flash frozen in liquid N2 and stored at −80° C. until needed. All operations below were at 4° C. unless otherwise noted. […]
For determination of IC50 values, the reactions were carried out in 384-well white Polyplates (Perkin Elmer) in a total volume of 20 μL. […] Plates were centrifuged at 2,000×g for 1 min in an Allegra 6R Centrifuge (Beckman Coulter) and then were sealed again with fresh covers before reading in a 1450 Microbeta Wallac Trilux Scintillation Counter (Perkin Elmer). DGAT2 activity was measured by quantifying the generated product [^14C]tridecanoylglycerol in the upper organic phase. […]

Usually IC50 stands for the concentration at which inhibition is half-maximal.

Chain of hDGAT2 (Q96PD7 whole entry): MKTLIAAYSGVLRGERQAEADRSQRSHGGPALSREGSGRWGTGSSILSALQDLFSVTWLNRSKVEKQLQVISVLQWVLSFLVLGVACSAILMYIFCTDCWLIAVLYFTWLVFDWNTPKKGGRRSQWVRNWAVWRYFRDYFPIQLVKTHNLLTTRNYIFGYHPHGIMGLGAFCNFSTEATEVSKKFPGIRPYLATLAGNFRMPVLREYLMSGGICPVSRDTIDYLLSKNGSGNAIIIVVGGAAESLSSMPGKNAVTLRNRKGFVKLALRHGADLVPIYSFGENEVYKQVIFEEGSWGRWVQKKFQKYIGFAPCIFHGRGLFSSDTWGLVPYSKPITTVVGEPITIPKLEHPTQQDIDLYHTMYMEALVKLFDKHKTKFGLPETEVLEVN

In the case of “(R)-2-(3-(2-ethoxy- phenoxy)piperidin-1-yl)- N-(1-hydroxy-2-methyl- propan-2-yl)pyrimidine- 5-carboxamide [Example 19.21]”, the IC50 came out at 7.9 nM.
